Source: ChEMBL document CHEMBL5030560, “Berberine Molecular Recognition of the Parallel MYC G-Quadruplex in Solution” (J Med Chem, 2021)
Active and inactive are the calls of the source. The calls are words filed in the database; no cut-off is given here.

What was measured:
Type in all cases: nucleic-acid assay
Quadruplex DNA [1] = assay: Binding affinity to human MycG4 DNA (unknown origin) assessed as compound-DNA complex at 2:1 ratio by mass spectroscopy
Quadruplex DNA [2] = assay: Binding affinity to human MycG4 DNA (unknown origin) assessed as apparent dissociation constant by fluorescence based binding assay; settings: read-out: Kd(app)
Quadruplex DNA [3] = assay: Binding affinity to human MycG4 DNA (unknown origin) assessed as compound-DNA complex at 3:1 ratio by 1D NMR analysis

## COc1ccc2cc3[n+](cc2c1OC)CCc1cc2c(cc1-3)OCO2 [BERBERINE]
Quadruplex DNA [1]
  Activity: Active
Quadruplex DNA [2]
  Kd: 9.9 µM
Quadruplex DNA [3]
  Activity: Active
